Measured values published in PMC4393303 (PLoS ONE, 2015).

What was measured:
[1] = biological target: PknH (Mycobacterium tuberculosis, UniProt P9WI71)
[2] = biological target: PknD (GST-PknD) (Mycobacterium tuberculosis, UniProt P9WI79)
[3] = biological target: PknG (Mycobacterium tuberculosis, UniProt P9WI73)
[4] = biological target: PknJ (Mycobacterium tuberculosis, UniProt P9WI67)
[5] = biological target: PknE (Mycobacterium tuberculosis, UniProt P9WI77)
[6] = biological target: PknA (Mycobacterium tuberculosis, UniProt P9WI83)
Chain of PknA (P9WI83 whole entry): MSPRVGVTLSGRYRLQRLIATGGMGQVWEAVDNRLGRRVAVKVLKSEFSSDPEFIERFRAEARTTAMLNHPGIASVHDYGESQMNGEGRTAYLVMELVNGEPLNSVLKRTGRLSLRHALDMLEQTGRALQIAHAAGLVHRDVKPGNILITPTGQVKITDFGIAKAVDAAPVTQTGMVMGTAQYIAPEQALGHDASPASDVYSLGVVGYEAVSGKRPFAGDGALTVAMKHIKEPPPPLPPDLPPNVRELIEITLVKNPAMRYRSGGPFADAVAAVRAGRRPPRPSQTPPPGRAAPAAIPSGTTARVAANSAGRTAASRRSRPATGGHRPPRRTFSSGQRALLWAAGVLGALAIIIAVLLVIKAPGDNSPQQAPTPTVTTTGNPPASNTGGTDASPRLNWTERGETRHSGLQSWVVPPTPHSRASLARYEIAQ

Chain of PknJ (P9WI67 whole entry): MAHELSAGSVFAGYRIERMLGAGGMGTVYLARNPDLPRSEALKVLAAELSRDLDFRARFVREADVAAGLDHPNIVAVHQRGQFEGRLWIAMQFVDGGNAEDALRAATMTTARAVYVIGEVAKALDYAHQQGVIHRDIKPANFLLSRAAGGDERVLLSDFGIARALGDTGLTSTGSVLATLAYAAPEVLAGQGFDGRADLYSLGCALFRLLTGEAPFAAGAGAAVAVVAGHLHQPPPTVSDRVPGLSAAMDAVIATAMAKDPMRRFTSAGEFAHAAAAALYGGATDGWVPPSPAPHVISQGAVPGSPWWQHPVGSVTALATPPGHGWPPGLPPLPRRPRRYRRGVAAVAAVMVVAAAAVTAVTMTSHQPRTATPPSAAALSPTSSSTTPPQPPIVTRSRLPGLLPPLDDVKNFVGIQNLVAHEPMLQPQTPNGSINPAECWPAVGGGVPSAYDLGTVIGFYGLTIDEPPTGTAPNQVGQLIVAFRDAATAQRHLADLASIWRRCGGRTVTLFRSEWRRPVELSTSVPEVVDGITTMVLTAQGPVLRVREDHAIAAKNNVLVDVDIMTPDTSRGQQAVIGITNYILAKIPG
Chain of PknE (P9WI77 whole entry): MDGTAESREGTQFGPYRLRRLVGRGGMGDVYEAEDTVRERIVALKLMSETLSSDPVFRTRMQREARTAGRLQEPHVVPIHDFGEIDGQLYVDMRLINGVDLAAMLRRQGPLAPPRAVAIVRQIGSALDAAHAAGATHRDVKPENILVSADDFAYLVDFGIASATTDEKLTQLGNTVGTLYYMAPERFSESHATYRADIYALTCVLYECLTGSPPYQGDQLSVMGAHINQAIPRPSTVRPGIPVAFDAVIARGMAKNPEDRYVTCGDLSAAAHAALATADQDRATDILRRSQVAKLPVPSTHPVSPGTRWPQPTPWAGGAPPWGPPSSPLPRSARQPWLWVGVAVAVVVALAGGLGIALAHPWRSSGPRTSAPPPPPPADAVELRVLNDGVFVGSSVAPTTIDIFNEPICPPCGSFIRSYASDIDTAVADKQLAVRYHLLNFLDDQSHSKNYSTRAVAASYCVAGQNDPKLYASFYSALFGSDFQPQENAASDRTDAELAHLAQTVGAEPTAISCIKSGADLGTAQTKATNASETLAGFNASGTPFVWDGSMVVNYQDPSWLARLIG
Chain of PknD (GST-PknD) (P9WI79 whole entry): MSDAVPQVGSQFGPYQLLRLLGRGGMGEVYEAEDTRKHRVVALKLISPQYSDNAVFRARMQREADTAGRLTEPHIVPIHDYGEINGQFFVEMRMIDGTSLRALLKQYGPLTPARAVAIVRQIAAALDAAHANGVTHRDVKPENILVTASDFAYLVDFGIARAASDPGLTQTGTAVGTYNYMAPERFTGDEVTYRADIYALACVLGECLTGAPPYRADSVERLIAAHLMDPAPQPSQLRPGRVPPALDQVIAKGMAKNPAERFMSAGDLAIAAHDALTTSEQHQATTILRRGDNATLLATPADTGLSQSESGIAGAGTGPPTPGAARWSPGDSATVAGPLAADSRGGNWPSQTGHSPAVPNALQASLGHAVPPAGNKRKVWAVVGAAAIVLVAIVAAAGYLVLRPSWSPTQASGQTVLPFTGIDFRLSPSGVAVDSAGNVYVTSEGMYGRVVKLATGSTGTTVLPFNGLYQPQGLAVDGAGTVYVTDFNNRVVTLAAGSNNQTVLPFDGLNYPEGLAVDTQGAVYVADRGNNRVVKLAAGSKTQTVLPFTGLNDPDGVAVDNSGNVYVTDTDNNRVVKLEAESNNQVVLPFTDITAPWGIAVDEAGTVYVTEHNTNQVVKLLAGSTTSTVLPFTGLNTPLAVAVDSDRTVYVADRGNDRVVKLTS
Chain of PknG (P9WI73 whole entry): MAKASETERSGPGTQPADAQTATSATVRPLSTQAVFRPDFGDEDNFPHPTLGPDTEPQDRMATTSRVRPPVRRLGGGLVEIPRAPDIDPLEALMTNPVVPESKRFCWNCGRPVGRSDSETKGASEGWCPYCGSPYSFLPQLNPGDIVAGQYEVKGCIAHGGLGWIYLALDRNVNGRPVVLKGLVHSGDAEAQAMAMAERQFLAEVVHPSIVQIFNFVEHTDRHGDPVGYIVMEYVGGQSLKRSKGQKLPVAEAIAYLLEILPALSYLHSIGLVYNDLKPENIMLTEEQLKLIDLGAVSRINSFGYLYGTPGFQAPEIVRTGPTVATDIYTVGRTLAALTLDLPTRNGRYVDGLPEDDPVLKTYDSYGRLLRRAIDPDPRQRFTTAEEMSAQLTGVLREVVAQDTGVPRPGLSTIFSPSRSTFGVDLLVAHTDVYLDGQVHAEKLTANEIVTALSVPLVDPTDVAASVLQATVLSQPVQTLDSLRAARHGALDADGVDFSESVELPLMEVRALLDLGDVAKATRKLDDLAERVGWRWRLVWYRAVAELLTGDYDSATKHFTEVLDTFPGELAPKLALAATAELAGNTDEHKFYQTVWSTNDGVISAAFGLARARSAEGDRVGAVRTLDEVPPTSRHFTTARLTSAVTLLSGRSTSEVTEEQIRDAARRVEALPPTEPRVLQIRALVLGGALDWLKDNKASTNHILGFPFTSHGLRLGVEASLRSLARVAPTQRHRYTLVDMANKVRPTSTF
Chain of PknH (P9WI71 whole entry): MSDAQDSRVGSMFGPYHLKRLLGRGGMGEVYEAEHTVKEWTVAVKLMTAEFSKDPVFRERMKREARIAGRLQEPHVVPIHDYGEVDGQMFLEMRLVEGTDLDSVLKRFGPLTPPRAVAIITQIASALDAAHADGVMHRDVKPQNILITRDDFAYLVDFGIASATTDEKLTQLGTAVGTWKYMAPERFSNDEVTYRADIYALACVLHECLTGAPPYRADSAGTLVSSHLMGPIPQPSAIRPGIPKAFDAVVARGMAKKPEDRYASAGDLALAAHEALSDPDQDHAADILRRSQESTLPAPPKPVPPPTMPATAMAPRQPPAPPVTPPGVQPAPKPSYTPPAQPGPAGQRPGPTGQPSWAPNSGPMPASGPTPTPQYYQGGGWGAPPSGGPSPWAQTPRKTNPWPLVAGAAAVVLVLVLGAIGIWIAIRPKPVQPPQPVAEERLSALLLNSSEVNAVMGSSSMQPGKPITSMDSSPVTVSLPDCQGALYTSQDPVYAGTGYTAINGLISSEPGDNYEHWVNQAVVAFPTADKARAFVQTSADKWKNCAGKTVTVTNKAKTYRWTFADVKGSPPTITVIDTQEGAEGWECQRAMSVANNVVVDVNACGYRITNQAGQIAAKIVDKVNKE

Q: For `Nc1ncnc2c1ncn2[C@@H]1O[C@H](COP(=O)(O)OP(=O)(O)OP(=O)(O)O)[C@@H](O)[C@H]1O` [[γ-^33P]ATP], which “in vitro radiolabelled phosphorylation, SDS-PAGE autoradiography” value (from here on “in vitro radiolabelled phosphorylation”) [1] is on record?
A: PknA, PknD, PknE, PknG, PknH and PknJ phosphorylated the (His)6-MDH

Q: What about the “in vitro radiolabelled phosphorylation” value [2] of the same molecule?
A: the MDH was phosphorylated by PknD, but could not be autophosphorylated

Q: What about the “in vitro radiolabelled phosphorylation” value [3] of the same molecule?
A: PknA, PknD, PknE, PknG, PknH and PknJ phosphorylated the (His)6-MDH

Q: And the “in vitro radiolabelled phosphorylation” value [4]?
A: PknA, PknD, PknE, PknG, PknH and PknJ phosphorylated the (His)6-MDH

Q: What about the “in vitro radiolabelled phosphorylation” value [5] of the same molecule?
A: PknA, PknD, PknE, PknG, PknH and PknJ phosphorylated the (His)6-MDH

Q: And the “in vitro radiolabelled phosphorylation” value [6]?
A: PknA, PknD, PknE, PknG, PknH and PknJ phosphorylated the (His)6-MDH
